Data from publication PMC12210912, “Pharmacologic properties and inhibitory activity of 6-azasteroids against Mycobacterium leprae in vivo and in vitro” (Microbiology Spectrum, 2025).
Read-outs that look alike come from different tables or passages of the source.

Key:
[1] = stability in human liver microsomes; format: in vitro ADME; settings: both sexes
Experimental: Experiments were performed by Pharmaron, Inc., China. […] Negative control samples were prepared by replacing the NADPH solution with ultrapure H2O. The negative controls were used to exclude the confounding variable of test compound instability. Experiments involving NADPH were carried out in duplicate. Negative controls were prepared in singlet. Aliquots (90 µL) were taken at 0, 15, 30, 45, and 60 min of incubation. The microsomal reaction in each aliquot was stopped by the addition of four volumes of cold acetonitrile containing internal standards (100 nM alprazolam, 200 nM imipramine, 200 nM labetalol, and 2 µM ketoprofen). The samples were centrifuged at 3,220 × g for 40 min, and an aliquot (90 µL) of the supernatant was mixed with 90 µL of ultrapure H2O. The resulting mixture was used for liquid chromatography–tandem mass spectrometry (LC-MS/MS) analysis (Shimadzu and SCIEX Triple Quad 4500). Peak areas were determined from extracted ion chromatograms. A slope, k, was determined by linear regression analysis of a plot of the natural logarithm of the remaining percentage of the parent drug versus incubation time. The in vitro t1/2 (min) was determined from the slope: in vitro t1/2=−(0.693/k) In vitro t1/2 (min, mean of duplicate determinations) was converted to in vitro intrinsic clearance (in vitro Clint, μL/(min·µg protein)) by means of the following equation : in vitro Clint=(0.693/t1/2)×(volume of incubation (μL)/amount of protein (μg))

LXRβ = target: T1, LXRβ (Homo sapiens, UniProt P55055); test: LXRβ radioligand binding inhibition; settings: [3H]T0901317 binding, recombinant protein; for % inhibition observed, LXRβ: 10 µM; for inhibition at 10 µM: read-out: % inhibition observed, LXRβ
T1 construct: Eurofins (assay provider); host or cells: E. coli
T1 sequence (P55055 1-460): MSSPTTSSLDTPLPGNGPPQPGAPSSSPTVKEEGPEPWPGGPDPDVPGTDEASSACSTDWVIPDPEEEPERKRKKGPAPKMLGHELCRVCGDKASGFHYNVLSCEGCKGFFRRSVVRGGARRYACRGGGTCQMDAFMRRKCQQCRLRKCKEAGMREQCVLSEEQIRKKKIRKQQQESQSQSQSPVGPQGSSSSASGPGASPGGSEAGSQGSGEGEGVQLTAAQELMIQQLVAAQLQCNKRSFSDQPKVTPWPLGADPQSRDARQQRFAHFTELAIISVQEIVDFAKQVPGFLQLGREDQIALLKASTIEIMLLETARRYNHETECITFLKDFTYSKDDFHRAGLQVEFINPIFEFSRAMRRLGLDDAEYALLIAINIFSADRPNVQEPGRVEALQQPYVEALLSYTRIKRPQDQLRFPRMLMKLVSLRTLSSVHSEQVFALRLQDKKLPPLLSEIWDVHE
Experimental: Four nuclear receptors: glucocorticoid, androgen, LXRα, and LXRβ were assayed. Inhibition of agonist binding to each of the receptors was carried out following a standard protocol by Eurofins, Inc., USA. Compounds were tested at 10 µM. Compound binding was measured by scintillation counting and was calculated as a % inhibition of the binding of a radioactively labeled ligand specific for each target. Percent inhibition of control specific binding was expressed as
100−[(measured specific binding)/(control specific binding)∗100]
where measured specific binding is the amount of radioactive ligand binding obtained in the presence of test compounds.
(iii) LXRα (human) recombinant protein expressed in E. coli; agonist radioligand 20 nM [^3H] […] (iv) LXRβ (human) recombinant protein expressed in E. coli; agonist radioligand 20 nM [^3H]

hERG channel = target: T2, hERG channel (Homo sapiens, UniProt Q12809); test: hERG potassium channel current inhibition, whole-cell patch clamp; format: cell-based; settings: hERG-expressing HEK 293 cells, whole-cell recording, 25 °C
T2 construct: host or cells: HEK 293
Experimental: Inhibition of human ether-a-go-go-related gene (hERG) potassium channel current was carried out following a standard protocol by Pharmaron, Inc. hERG stably expressed HEK 293 cell line (Cat# K1236) was purchased from Invitrogen (Thermo Fisher Scientific, USA). The cells are cultured in 90% DMEM, 10% dialyzed FBS, 0.1 mM NEAA, 25 mM HEPES, 100 U/mL Penicillin-Streptomycin, 5 µg/mL Blasticidin, and 400 µg/mL Geneticin. Cells are split using TrypLE Express about three times a week and maintained between ~40% and ~80% confluence. Before the assay, the cells were plated onto the coverslips at 5 × 10^5 cells/6 cm cell culture dish and induced with doxycycline at 1 µg/mL for 48 h. Test compound was initially prepared in DMSO with final concentration of 30 mM as stock solution. Then stock solution of test compound was serial-diluted by ratio of 1:3 with DMSO to prepare additional four intermedial solutions including 10, 3.33, 1.11, 0.37 mM, respectively. […] 5 doses were challenged to the patched cells for IC50 determination.
The voltage-gated hERG potassium channel current was recorded at room temperature (25 °C) from randomly selected transfected cells using whole-cell recording technique with a Multiclamp 700B amplifier (Molecular Devices, US) and an EPC10 microamplifier (HEKA, USA). Extracellular solution (in mM): 132 NaCl, 4 KCl, 3 CaCl2, 0.5 MgCl2, 11.1 glucose, and 10 HEPES (pH adjusted to 7.35 with NaOH). Intracellular solution (in mM): 70 KF, 60 KCl, 15 NaCl, 5 EGTA, and 5 HEPES (pH adjusted to 7.35 with KOH).
The holding potential was set to −90 mV for 1 s; recording current at 50 kHz and filter at 10 kHz. Leaking current was tested at −80 mV for 500 ms. […] The current was recorded for 120 s to assess the current stability. […] After allowing the current to stabilize for 3 min, compound was applied. hERG current in the presence of test compound were recorded for approximately 5 min to reach steady state and then five sweeps were captured. […] Percent current inhibition was calculated using the following equation. […]

THP-1 cells = settings: cited from earlier work
[2] = human liver microsomes, pH 7.4, 1 μM, HLM 0.5 mg/mL, 37°C, 1 h, mean of duplicates, read-out: HLM stability t1/2

T2 sequence (Q12809 whole entry): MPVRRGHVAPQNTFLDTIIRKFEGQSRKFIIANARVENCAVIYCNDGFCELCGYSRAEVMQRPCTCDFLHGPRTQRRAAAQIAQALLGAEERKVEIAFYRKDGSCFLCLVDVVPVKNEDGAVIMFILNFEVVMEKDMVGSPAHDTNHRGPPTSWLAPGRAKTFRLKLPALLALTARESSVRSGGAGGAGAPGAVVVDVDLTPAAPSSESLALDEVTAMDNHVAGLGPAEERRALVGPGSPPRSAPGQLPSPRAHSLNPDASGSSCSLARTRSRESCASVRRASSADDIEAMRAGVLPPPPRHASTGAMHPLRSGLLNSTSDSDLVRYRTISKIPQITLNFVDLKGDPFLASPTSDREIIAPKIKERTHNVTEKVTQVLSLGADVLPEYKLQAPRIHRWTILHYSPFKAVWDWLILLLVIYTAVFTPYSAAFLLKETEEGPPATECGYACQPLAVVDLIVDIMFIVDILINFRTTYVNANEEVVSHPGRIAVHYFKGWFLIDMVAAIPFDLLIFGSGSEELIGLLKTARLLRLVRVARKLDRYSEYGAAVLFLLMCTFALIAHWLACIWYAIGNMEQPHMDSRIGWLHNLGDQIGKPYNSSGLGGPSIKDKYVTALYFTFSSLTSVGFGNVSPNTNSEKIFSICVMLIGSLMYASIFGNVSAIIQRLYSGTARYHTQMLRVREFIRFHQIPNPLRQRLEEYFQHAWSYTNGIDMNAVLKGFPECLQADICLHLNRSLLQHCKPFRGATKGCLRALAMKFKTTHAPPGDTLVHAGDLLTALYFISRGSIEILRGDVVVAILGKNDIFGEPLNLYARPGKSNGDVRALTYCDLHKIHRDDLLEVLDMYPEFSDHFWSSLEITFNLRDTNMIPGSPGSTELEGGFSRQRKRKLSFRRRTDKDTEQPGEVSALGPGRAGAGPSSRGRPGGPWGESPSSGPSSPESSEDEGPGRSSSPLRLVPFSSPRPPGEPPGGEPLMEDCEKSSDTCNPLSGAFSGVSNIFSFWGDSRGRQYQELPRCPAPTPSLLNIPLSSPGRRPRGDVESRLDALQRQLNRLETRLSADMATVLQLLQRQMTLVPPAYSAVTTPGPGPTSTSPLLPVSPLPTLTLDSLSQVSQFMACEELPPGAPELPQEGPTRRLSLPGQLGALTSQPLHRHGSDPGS

Compound | half-life at 1 µM ([1]; microsomes, pH 7.4, HLM stability t1/2) [min] | % inhibition observed, LXRβ (LXRβ) | inhibition at 10 µM (LXRβ) [%] | IC50 (hERG channel) [nM] | IC50 (THP-1 cells; read-out: Mammalian cell IC50 Cytotoxicity THP1, THP-1 cells, 72 h, Alamar Blue) [µM] | half-life at 1 µM [1, 2] [min] | IC50 (THP-1 cells) [µM] | half-life at 1 µM ([1]; human liver microsomes, pH 7.4, as stated in text, read-out: half-life in human liver microsomes) [min]
CC(C)(C)c1ccc(C(C)(C)C)c(NC(=O)C2CCC3C4CNC5=CC(=O)CC[C@]5(C)C4CC[C@]23C)c1 (stereo partly shown) [Compound 1] | 45 | significantly inhibit binding | 72 | 950 | 18 | – | – | –
CCCN1CC2C3CCC(C(=O)Nc4cc(C(C)(C)C)ccc4C(C)(C)C)[C@@]3(C)CCC2[C@@]2(C)CCC(=O)C=C12 (stereo partly shown) [Compound 2] | – | significantly inhibit binding | 69 | 740 | – | 18 | 24 | –
C[C@]12CCC3C(CNC4=CC(=O)CC[C@@]43C)C1CCC2C(=O)NC(c1ccc(F)cc1)c1ccc(F)cc1 (stereo partly shown) [Compound 5] | – | low binding | 26 | 3000 | – | 443 | 24 | > 360
